US20250186391A1, “ORAL COMPLEMENT FACTOR D INHIBITORS” (BioCryst Pharmaceuticals, Inc., priority 2019, published 2025)

molecular target: Factor D (Homo sapiens (Human), UniProt P00746); assay: Factor D esterolytic assay; assay type: biochemical; conditions: Z-Lys-SBzl substrate, 100 mM HEPES, 500 mM NaCl, pH 7.5, 10% DMSO; tested a minimum of three times; read-out: Measured Ki (IC50) Value for Compounds: IC50
How it was run: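 Buffer was 100 mM HEPES, 500 mM NaCl, pH 7.5 with 10% DMSO. Compound and Factor D were combined, then Z-Lys-SBzl (1.29 mM) was added either at once or following room-temperature incubation. Rates came from DTNB colour at 405 nm minus 690 nm over 600 s, with percent inhibition giving IC50 over at least three tests.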

Sequence of Factor D (P00746 26-253): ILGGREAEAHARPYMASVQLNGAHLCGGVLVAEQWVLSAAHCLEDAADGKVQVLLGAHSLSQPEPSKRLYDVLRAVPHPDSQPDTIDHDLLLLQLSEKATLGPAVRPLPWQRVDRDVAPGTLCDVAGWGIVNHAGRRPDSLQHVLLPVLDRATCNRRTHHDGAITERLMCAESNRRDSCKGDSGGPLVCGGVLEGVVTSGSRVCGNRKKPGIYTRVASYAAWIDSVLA

| IC50 [nM] | Compound |
| --- | --- |
| < 1000 | Cc1ccc(CC(=O)O)c(OCc2nn(C)c3ccc(-c4cccc(CN)c4)cc23)c1 [Compound 206c, 2-(2-((5-(3-(aminomethyl)phenyl)-1-methyl-1H-indazol-3-yl)methoxy)-4-methylphenyl)acetic acid] |
| < 1000 | COc1ccc(CC(=O)O)c(OCc2c3cc(-c4cccc(CN)c4)ccc3nn2C)c1 [Compound 210c, 2-(2-((5-(3-(aminomethyl)phenyl)-2-methyl-2H-indazol-3-yl)methoxy)-4-methoxyphenyl)acetic acid] |
| < 1000 | Cc1ccc(CC(=O)O)c(OCc2c3cc(-c4cccc(CN)c4)ccc3nn2C)c1 [Compound 211c, 2-(2-((5-(3-(aminomethyl)phenyl)-2-methyl-2H-indazol-3-yl)methoxy)-4-methylphenyl)acetic acid] |
| < 1000 | COc1ccc(CC(=O)O)c(OCc2nn(C(C)C)c3ccc(-c4cccc(CN)c4)cc23)c1 [Compound 213c, 2-(2-((5-(3-(aminomethyl)phenyl)-1-isopropyl-1H-indazol-3-yl)methoxy)-4-methoxyphenyl)acetic acid] |
| < 1000 | COc1ccc(CC(=O)O)c(OCc2c(CO)oc3ccc(-c4cccc(CN)c4)cc23)c1 [Compound 214c, 2-(2-((5-(3-(aminomethyl)phenyl)-2-(hydroxymethyl)benzofuran-3-yl)methoxy)-4-methoxyphenyl)acetic acid] |
| < 1000 | COc1ccc(CC(=O)O)c(OCc2c(C(F)F)oc3ccc(-c4cccc(CN)c4)cc23)c1 [Compound 215d, 2-(2-((5-(3-(aminomethyl)phenyl)-2-(difluoromethyl)benzofuran-3-yl)methoxy)-4-methoxyphenyl)acetic acid] |
| < 1000 | COc1ccc(CC(=O)O)c(OCc2c(C(O)C(F)(F)F)oc3ccc(-c4cccc(CN)c4)cc23)c1 (stereo not shown) [Compound 216c, 2-(2-((5-(3-(aminomethyl)phenyl)-2-(2,2,2-trifluoro-1-hydroxyethyl)benzofuran-3-yl)methoxy)-4-methoxyphenyl)acetic acid] |
| < 1000 | COc1ccc(CC(=O)O)c(OCc2c(C(C)O)oc3ccc(-c4cccc(CN)c4)cc23)c1 (stereo not shown) [Compound 217c, 2-(2-((5-(3-(aminomethyl)phenyl)-2-(1-hydroxyethyl)benzofuran-3-yl)methoxy)-4-methoxyphenyl)acetic acid] |
| < 1000 | COc1ccc(CC(=O)O)c(OCc2c(C(C)=O)oc3ccc(-c4cccc(CN)c4)cc23)c1 [Compound 218c, 2-(2-((2-acetyl-5-(3-(aminomethyl)phenyl)benzofuran-3-yl)methoxy)-4-methoxyphenyl)acetic acid] |
| < 1000 | Cc1cccc(C)c1-c1cc(-c2cccc(CN)c2)cc2c(COc3ccccc3CC(=O)O)coc12 [Compound 220c, 2-(2-((5-(3-(aminomethyl)phenyl)-7-(2,6-dimethylphenyl)benzofuran-3-yl)methoxy)phenyl)acetic acid] |
| < 1000 | NCc1cccc(-c2cc(-c3ccc(F)cc3)c3occ(COc4ccccc4CC(=O)O)c3c2)c1 [Compound 221c, 2-(2-((5-(3-(aminomethyl)phenyl)-7-(4-fluorophenyl)benzofuran-3-yl)methoxy)phenyl)acetic acid] |
| < 1000 | Cc1ccccc1-c1cc(-c2cccc(CN)c2)cc2c(COc3ccccc3CC(=O)O)coc12 [Compound 223c, 2-(2-((5-(3-(aminomethyl)phenyl)-7-(o-tolyl)benzofuran-3-yl)methoxy)phenyl)acetic acid] |
| < 1000 | CCc1oc2ccc(-c3cccc(CN)c3)cc2c1COc1cc(OC)ccc1CC(=O)O [Compound 225e, 2-(2-((5-(3-(aminomethyl)phenyl)-2-ethylbenzofuran-3-yl)methoxy)-4-methoxyphenyl)acetic acid] |
| < 1000 | CCc1oc2ccc(-c3cccc(CN)c3)cc2c1COc1ccccc1CC(=O)O [Compound 226c, 2-(2-((5-(3-(aminomethyl)phenyl)-2-ethylbenzofuran-3-yl)methoxy)phenyl)acetic acid] |
| < 1000 | CCc1oc2ccc(-c3cccc(CN)c3F)cc2c1COc1cc(OC)ccc1CC(=O)O [Compound 227b, 2-(2-((5-(3-(aminomethyl)-2-fluorophenyl)-2-ethylbenzofuran-3-yl)methoxy)-4-methoxyphenyl)acetic acid] |

The remaining lines, values behind:

| Compound | IC50 [nM] |
| --- | --- |
| COC[C@H]1CCCN1Cc1cc(-c2cccc(CN)c2)cc2c(COc3ccccc3CC(=O)O)coc12 [Compound 205d, (R)-2-(2-((5-(3-(aminomethyl)phenyl)-7-((2-(methoxymethyl)pyrrolidin-1-yl)methyl)benzofuran-3-yl)methoxy)phenyl)acetic acid] | < 1000 |
| NCc1cccc(-c2cc(CN3CCC3)c3occ(COc4ccccc4CC(=O)O)c3c2)c1 [Compound 207d, 2-(2-((5-(3-(aminomethyl)phenyl)-7-(azetidin-1-ylmethyl)benzofuran-3-yl)methoxy)phenyl)acetic acid] | < 1000 |
| C[C@@H]1CN(Cc2cc(-c3cccc(CN)c3)cc3c(COc4ccccc4CC(=O)O)coc23)C[C@H](C)O1 [Compound 208d, 2-(2-((5-(3-(aminomethyl)phenyl)-7-(((2R,6S)-2,6-dimethylmorpholino)methyl)benzofuran-3-yl)methoxy)phenyl)acetic acid] | < 1000 |
| NCc1cccc(-c2cc(CNCC3CC3)c3occ(COc4ccccc4CC(=O)O)c3c2)c1 [Compound 209c, 2-(2-((5-(3-(aminomethyl)phenyl)-7-(((cyclopropylmethyl)amino)methyl)benzofuran-3-yl)methoxy)phenyl)acetic acid] | < 1000 |
| NCc1cccc(-c2ccc3nnc(COc4ccccc4CC(=O)O)n3c2)c1 [Compound 212d, 2-(2-((6-(3-(aminomethyl)phenyl)-[1,2,4]triazolo[4,3-a]pyridin-3-yl)methoxy)phenyl)acetic acid] | < 1000 |
| CC(C)c1ccccc1-c1cc(-c2cccc(CN)c2)cc2c(COc3ccccc3CC(=O)O)coc12 [Compound 219c, 2-(2-((5-(3-(aminomethyl)phenyl)-7-(2-isopropylphenyl)benzofuran-3-yl)methoxy)phenyl)acetic acid] | < 1000 |
| NCc1cccc(-c2cc(-c3ccccc3N)c3occ(COc4ccccc4CC(=O)O)c3c2)c1 [Compound 222c, 2-(2-((5-(3-(aminomethyl)phenyl)-7-(2-aminophenyl)benzofuran-3-yl)methoxy)phenyl)acetic acid] | < 1000 |
| Cc1cc(-c2cc(-c3cccc(CN)c3)cc3c(COc4ccccc4CC(=O)O)coc23)cn(C)c1=O [Compound 224c, 2-(2-((5-(3-(aminomethyl)phenyl)-7-(1,5-dimethyl-6-oxo-1,6-dihydropyridin-3-yl)benzofuran-3-yl)methoxy)phenyl)acetic acid] | < 1000 |
| CC(C)n1nc(C(Oc2ccccc2CC(=O)O)c2ccccc2)c2cc(-c3cccc(CN)c3)ccc21 (stereo not shown) [Compound 228e, 2-(2-((5-(3-(aminomethyl)phenyl)-1-isopropyl-1H-indazol-3-yl)(phenyl)methoxy)phenyl)acetic acid] | > 10000 |
| NCc1cccc(-c2cc3c(COc4ccccc4CC(=O)O)coc3c3occc23)c1 [Compound 229g, 2-(2-((5-(3-(aminomethyl)phenyl)benzo[1,2-b:6,5-b′]difuran-3-yl)methoxy)phenyl)acetic acid] | < 1000 |
